US20090069430A1, “DIBENZENE DERIVATIVES AS CALCIUM CHANNEL BLOCKERS” (NEUROPHARMA, S.A., priority 2005, published 2009)

Tested on: VDCC
Test: VDCC inhibition: calcium entry (Fluo-4 fluorescence) after depolarization with 60 mM KCl in SH-SY5Y neuroblastoma cells
Format: cell-based, human
Procedure: This assay is aimed to determine the VDCC blocker activity of compounds; it is performed using SH-SY5Y neuroblastoma cells. SH-SY5Y cells were plated at 5×10^4 cells per well into Black/Clear Bottom 96-well culture plate, 48 hours before treatment. Cells were loaded with Fluo-4, 5 μM and pluronic acid, 0.1%, for 30 min at 37° C., 5% CO2, following a incubation of 15 min at RT in Krebs-HEPES solution. Immediately cells are exposed to the samples for 10 min at different concentrations, depending on potency. After the treatment, calcium entry is measured as fluorescence in a Fluostar Optima plate reader (BMG) in response to depolarization with 60 mM KCl. The excitation wavelength was 485 nm, and that of emission 520 nm.

[1] = compound at 10^−5, 10 min exposure
[2] = compound at 10^−6, 10 min exposure
[3] = compound at 10^−7, 10 min exposure
[4] = compound at 10^−8, 10 min exposure

| SMILES | % of calcium entry inhibition [1] | % of calcium entry inhibition [2] | % of calcium entry inhibition [3] | % of calcium entry inhibition [4] |
| --- | --- | --- | --- | --- |
| CCC(C)Oc1cc(OC)ccc1C(=O)NCCCCCCNC(=O)c1ccc(OC)cc1OC(C)CC (stereo not shown) [Compound 20] | 91 ± 3% | 59 ± 19% | 0% | – |
| CCCCOc1cc(OC)ccc1C(=O)NCCCCCCNC(=O)c1ccc(OC)cc1OCCCC [Compound 22] | 24 ± 12% | 0% | – | – |
| CCCCCOc1cc(OC)ccc1C(=O)NCCCCCCNC(=O)c1ccc(OC)cc1OCCCCC [Compound 21] | 27 ± 7% | 0% | – | – |
| CCC(C)Oc1cc(OC)ccc1C(=O)NCCCOc1ccc(CCNC(=O)c2ccc(OC)cc2OC(C)CC)cc1 (stereo not shown) [Compound 19] | 75 ± 12% | 69 ± 1% | 0% | – |
| COc1ccc(C(=O)NCCCOc2ccc(CCNC(=O)c3ccc(OC)cc3OCC=C(C)C)cc2)c(OCC=C(C)C)c1 [Compound 17] | 45 ± 12% | 39 ± 8% | 0% | – |
| COCOc1cc(OC)ccc1C(=O)NCCCCCNC(=O)c1ccc(OC)cc1OCOC [Compound 1] | 57.8 ± 16% | – | – | – |
| COc1ccc(C(=O)NCCCOc2ccc(CCNC(=O)c3ccc(OC)cc3OCC(C)C)cc2)c(OCC(C)C)c1 [Compound 16] | 39 ± 4% | 0% | – | – |
| COc1cc(O)c(C(=O)NCCCCCNC(=O)c2cc(Br)c(OC)cc2O)cc1Br [Compound 5] | – | 0% | – | – |
| COCOc1cc(OC)ccc1C(=O)NCCCOc1c(Br)cc(CCNC(=O)c2ccc(OC)cc2OCOC)cc1Br [Compound 4] | – | – | 6 ± 0% | – |
| COc1ccc(C(=O)NCCCCCCNC(=O)c2ccc(OC)cc2OC)c(OC)c1 [Compound 14] | 38 ± 6% | 0% | – | – |
| CCCOc1cc(OC)ccc1C(=O)NCCCOc1ccc(CCNC(=O)c2ccc(OC)cc2OCCC)cc1 [Compound 9] | 86 ± 0.5% | 61 ± 0% | 0% | – |
| COc1ccc(C(=O)NCCCOc2ccc(CCNC(=O)c3ccc(OC)cc3OCC(C)=O)cc2)c(OCC(C)=O)c1 [Compound 11] | 36 ± 3% | 0% | – | – |
| COCOc1cc(OC)ccc1C(=O)NCCCOc1ccc(CCNC(=O)c2ccc(OC)cc2OCOC)cc1 [Compound 2] | 93.3 ± 5% | 34.2 ± 1.5% | 29.7 ± 14% | 31.2 ± 9% |
| COCCOc1cc(OC)ccc1C(=O)NCCCOc1ccc(CCNC(=O)c2ccc(OC)cc2OCCOC)cc1 [Compound 10] | 79 ± 0.1% | 22 ± 19% | 0% | – |
| CCCCOc1cc(OC)ccc1C(=O)NCCCOc1ccc(CCNC(=O)c2ccc(OC)cc2OCCCC)cc1 [Compound 18] | 37 ± 2% | 0% | – | – |
| COc1ccc(C(=O)NCCCOc2ccc(CCNC(=O)c3ccc(OC)cc3OC)cc2)c(OC)c1 [Compound 15] | 91.5 ± 1.5% | 37 ± 5% | 0% | – |
| COc1cc(O)c(C(=O)NCCCCCNC(=O)c2cc(Br)c(OC)c(Br)c2O)cc1Br [Compound 6] | 96.6 ± 4% | 48.7 ± 18% | 27.5 ± 5% | 11.8 ± 16% |
| COc1cc(OC)c(C(=O)NCCCCCNC(=O)c2ccc(OC)c(C)c2OC)cc1OC [Compound 13] | 27 ± 2% | 0% | – | – |
| CCOC(=O)COc1cc(OC)ccc1C(=O)NCCCOc1ccc(CCNC(=O)c2ccc(OC)cc2OCC(=O)OCC)cc1 [Compound 8] | 57 ± 7% | 0% | – | – |
| COc1ccc(C(=O)NCCCCCNC(=O)c2ccc(OC)c(C)c2OC)c(OC)c1C [Compound 12] | 78 ± 2.5% | 0% | – | – |
| COc1c(Br)cc(C(=O)NCCCCCNC(=O)c2cc(Br)c(OC)c(Br)c2O)c(O)c1Br [Compound 7] | 90.7 ± 3% | 3.1 ± 0% | – | – |
